Measurements published in the Deep4Chem optical property database.
Each block holds one molecule with its values, some of them ahead of it.

Assay: solvent given as SMILES

SMILES: CN(C)CCN(Cc1c2ccccc2cc2ccccc12)c1ccc([N+](=O)[O-])cc1[N+](=O)[O-]
emission maximum (in C1CCCCC1): 391 nm
emission maximum (in C1CCOC1): 394 nm
emission maximum (in CC#N): 394 nm
emission maximum (in CC(C)=O): 393 nm
emission maximum (in CCO): 394 nm
emission maximum (in CN(C)C=O): 396 nm
emission maximum (in CO): 392 nm
emission maximum (in CS(C)=O): 398 nm
emission maximum (in ClC(Cl)Cl): 394 nm
emission maximum (in ClCCl): 393 nm

SMILES: CC(C)(C)c1ccc(C(C)(C)C)c(N2C(=O)c3cccc4c(-c5ccc(-c6ccccc6)s5)ccc(c34)C2=O)c1
emission maximum (in CO): 572 nm
emission maximum (in CS(C)=O): 557 nm
emission maximum (in Cc1ccccc1): 493 nm

emission maximum (in ClC(Cl)Cl): 643 nm
SMILES: F[B-]1(F)n2c(ccc2-c2nc3ccccc3s2)C(c2ccccc2)=C2C=CC(c3nc4ccccc4s3)=[N+]21

emission maximum (in CC#N): 525 nm
SMILES: Oc1ccc2ccccc2c1/C=N/c1cc2nc3ccccc3nc2cc1/N=C/c1c(O)ccc2ccccc12

emission maximum (in ClCCl): 521 nm
SMILES: CCCCCCN1C(=O)c2cccc3c(-c4ccc(-c5cc(-c6ccc(OC)cc6)n(-c6ccccc6)n5)s4)ccc(c23)C1=O

emission maximum (in CC#N): 417.83 nm
emission maximum (in CCO): 411.74 nm
emission maximum (in ClCCl): 536 nm
SMILES: CN(C)c1cc(-c2ccc(C#Cc3ccncc3)cc2)cc2ccccc12

emission maximum (in ClCCl): 458 nm
SMILES: CCCCC(CC)Cn1c2cc(C#N)ccc2c2ccc(C#Cc3ccc4ccc5c(C#Cc6ccc7c8ccc(C#N)cc8n(CC(CC)CCCC)c7c6)cc(C#Cc6ccc7c8ccc(C#N)cc8n(CC(CC)CCCC)c7c6)c6ccc3c4c56)cc21 (centres undefined)

SMILES: N#Cc1nc(-n2c3ccccc3c3ccccc32)cc(-n2c3ccccc3c3ccccc32)n1
emission maximum (in Cc1ccccc1): 518 nm

emission maximum (in ClCCl): 525 nm
SMILES: CCCCCc1c(C(=O)c2ccc3c4c(cccc24)-c2cccc4c2C3CC=C4)c2ccc3cccc4c5cccc6ccc1c(c65)c2c34 (centres undefined)

emission maximum (in C1CCCCC1): 302 nm
emission maximum (in CC#N): 318 nm
emission maximum (in CCO): 323 nm
emission maximum (in CCOC(C)=O): 304 nm
SMILES: COC(=O)c1nc(-c2ccco2)oc1C

emission maximum (in C1CCOC1): 373 nm
emission maximum (in C1COCCO1): 402 nm
emission maximum (in CC#N): 495 nm
emission maximum (in CC(C)O): 411 nm
emission maximum (in CCCCO): 500 nm
emission maximum (in CCCO): 440 nm
emission maximum (in CCOC(C)=O): 495 nm
emission maximum (in CN(C)C=O): 494 nm
emission maximum (in CO): 415 nm
emission maximum (in CS(C)=O): 490 nm
emission maximum (in ClC(Cl)Cl): 438 nm
emission maximum (in O): 396 nm
SMILES: N#Cc1coc2ccccc2c1=O

emission maximum (in CS(C)=O): 514 nm
SMILES: Cc1cccn2c1cc1c3ccccc3nc(-c3cccs3)c12

emission maximum (in CS(C)=O): 408 nm
emission maximum (in O): 416 nm
SMILES: O=c1c2ccccc2[nH]c2ccccc12

emission maximum (in ClCCl): 486 nm
SMILES: CCCCC(CC)Cn1c2cc(C#N)ccc2c2ccc(C#Cc3cc(C#Cc4ccc5c6ccc(C#N)cc6n(CC(CC)CCCC)c5c4)c4ccc5c(C#Cc6ccc7c8ccc(C#N)cc8n(CC(CC)CCCC)c7c6)cc(C#Cc6ccc7c8ccc(C#N)cc8n(CC(CC)CCCC)c7c6)c6ccc3c4c65)cc21 (centres undefined)

SMILES: CN(C)c1ccc(C#Cc2ccc(C#N)cc2)cc1
emission maximum (in C1CCCCC1): 383 nm
emission maximum (in C1CCOC1): 505 nm
emission maximum (in C1COCCO1): 446.01 nm
emission maximum (in CC1CCCO1): 468.01 nm
emission maximum (in CC#N): 571 nm
emission maximum (in CC(C)=O): 543.01 nm
emission maximum (in CC(C)CC(C)(C)C): 380 nm
emission maximum (in CC(C)O): 510 nm
emission maximum (in CCCCCCCCCCCCCCCC): 385 nm
emission maximum (in CCCCCCCCCCCCCCCCCl): 423.6 nm
emission maximum (in CCOC(C)=O): 482 nm
emission maximum (in CCOCC): 453 nm
emission maximum (in CN(C)C=O): 566 nm
emission maximum (in CO): 547.02 nm
emission maximum (in CS(C)=O): 573 nm
emission maximum (in Cc1ccccc1): 427 nm

emission maximum (in ClC(Cl)Cl): 753 nm
SMILES: CC1=CC(/C=C/c2ccc(N(C)C)cc2)=[N+]2C1=C(c1ccccc1)c1c(C)cc(/C=C/c3ccc(N(C)C)cc3)n1[B-]2(F)F

SMILES: O=C1c2ccc(-c3ccc(N(c4ccccc4)c4ccccc4)cc3)cc2C(=O)c2ccc(-c3ccc(N(c4ccccc4)c4ccccc4)cc3)cc21
emission maximum (in Cc1ccccc1): 597 nm
emission maximum (in c1ccc2c(c1)c1ccccc1n2-c1ccc(-c2ccc(-n3c4ccccc4c4ccccc43)cc2)cc1): 594 nm

emission maximum (in ClC(Cl)Cl): 311 nm
SMILES: c1ccc(-c2ccnc(-c3ccccc3)n2)cc1

SMILES: CCN(CC)c1ccc2cc(-c3csc(N)c3C#N)c(=O)oc2c1
emission maximum (in C1CCOC1): 458 nm
emission maximum (in CO): 514 nm
emission maximum (in CS(C)=O): 482 nm
emission maximum (in Cc1ccccc1): 447 nm
emission maximum (in ClCCl): 464 nm

emission maximum (in C1CCCCC1): 370 nm
emission maximum (in CO): 380 nm
SMILES: C/C(=C\c1ccccc1)c1nc2ccccc2o1

SMILES: CCC1=C(C)C2=Cc3c4ccccc4c4n3[B-](c3ccncc3)(Oc3ccccc3-4)[N+]2=C1C=Cc1ccc(OC)cc1 (centres undefined)
emission maximum (in CC#N): 712 nm
emission maximum (in CCCCCC): 711 nm
emission maximum (in Cc1ccccc1): 720 nm
emission maximum (in ClCCl): 717 nm

emission maximum (in ClCCl): 557 nm
emission maximum (in c1ccccc1): 512 nm
SMILES: CCCCN(CCCC)c1ccc(C#Cc2cc(C#Cc3ccc(N(CCCC)CCCC)cc3)c(C#Cc3ccc(C#N)cc3)cc2C#Cc2ccc(C#N)cc2)cc1

emission maximum (in C1CCOC1): 375.8 nm
SMILES: CCCCCCCCCCCCn1c(-c2cc(-c3nc4ccc(C)cc4n3CCCCCCCCCCCC)cc(-c3nc4ccc(C)cc4n3CCCCCCCCCCCC)c2)nc2ccc(C)cc21

emission maximum (in ClC(Cl)Cl): 613 nm
SMILES: COc1ccc(-c2oc3cccc4c5c(-c6ccc(OC)c(OC)c6)/c(=N/S(=O)(=O)C(F)(F)F)oc6cccc(c2c34)c65)cc1OC

emission maximum (in O): 606 nm
SMILES: CC[n+]1c(-c2ccccc2)c2cc(N)ccc2c2ccc(N)cc21

SMILES: CCOC(=O)COc1ccc(/C=C/C2=C3c4ccccc4C(c4ccc[nH]4)=[N+]3[B-](F)(F)n3ccc(C)c32)cc1
emission maximum (in C1CCOC1): 625 nm
emission maximum (in CC#N): 617 nm
emission maximum (in CCCCCC): 630 nm
emission maximum (in CO): 624 nm
emission maximum (in Cc1ccccc1): 637 nm
emission maximum (in ClCCl): 631 nm

emission maximum (in ClCCl): 521 nm
SMILES: O=c1c2ccccc2nc2ccc(-c3ccc(N(c4ccccc4)c4ccccc4)cc3)cn12

emission maximum (in CO): 419 nm
SMILES: Cc1ccc2c(c1)nnn2-c1c(C#N)c2c(N)ncnc2n1[C@H]1C[C@H](O)[C@@H](CO)O1

emission maximum (in ClCCl): 557 nm
SMILES: COC(=O)c1ccc(C2=C(/C=C/c3ccc(OC)cc3)O[B-](F)(F)[O+]=C2/C=C/c2ccc(OC)cc2)cc1

emission maximum (in ClCCl): 427 nm
SMILES: O=Cc1ccc(C2=Cc3ccccc3P2(=O)c2ccccc2)cc1 (centres undefined)

emission maximum (in ClCCl): 458 nm
SMILES: CCCCC(CC)Cn1c2cc(C#N)ccc2c2ccc(C#Cc3ccc4ccc5ccc(C#Cc6ccc7c8ccc(C#N)cc8n(CC(CC)CCCC)c7c6)c6ccc3c4c56)cc21 (centres undefined)

emission maximum (in ClC(Cl)Cl): 523 nm
SMILES: Cc1cccc(C)c1-c1cc2c(C)c3c4cc5nc6cc7c(cc6nc5cc4c3c(C)c2cc1-c1c(C)cccc1C)c1c(C)c2cc(-c3c(C)cccc3C)c(-c3c(C)cccc3C)cc2c(C)c71

emission maximum (in C1CCOC1): 481 nm
SMILES: CN(C)c1ccc(C(=Cc2ccc(/C=C/c3ccc(C#N)cc3)cc2)c2ccc(N(C)C)cc2)cc1

emission maximum (in CO): 606.35 nm
SMILES: c1ccc(C2CSC(c3c4ccc(=[N+]5CCCCC5)cc-4oc4cc(N5CCCCC5)ccc34)SC2)cc1 (centres undefined)

SMILES: Cc1cc(-c2nc(-c3ccccc3)nc(-c3ccccc3)n2)ccc1-n1c2ccccc2c2cc3c(cc21)C1c2ccccc2C3c2ccccc21
emission maximum (in Cc1ccccc1): 431 nm
emission maximum (in O=P(c1ccccc1)(c1ccccc1)c1ccccc1Oc1ccccc1P(=O)(c1ccccc1)c1ccccc1): 451 nm

emission maximum (in C1CCCCC1): 480 nm
emission maximum (in C1CCOC1): 540 nm
emission maximum (in CC#N): 579 nm
emission maximum (in CS(C)=O): 589 nm
emission maximum (in ClCCl): 558 nm
SMILES: C(=C\c1ncnc2ccccc12)/c1ccc(N2CCCCC2)cc1
